In ChEMBL document CHEMBL5465560, “Selectivity Literature for EUbOPEN Chemogenomic Library” (2024):

Assays:
[1] = target: Serine/threonine-protein kinase PLK3 (Homo sapiens, UniProt Q9H4B4); details: at 10 µM
[2] = target: Insulin receptor-related protein (Homo sapiens) (UniProt P14616); test: Selectivity interaction (KinomeScan (DiscoverX)) EUB0001079a INSRR; details: at 1 µM
[3] = target: Ribosomal protein S6 kinase alpha-3 (Homo sapiens, UniProt P51812); test: Selectivity interaction (Kinase panel (KiNativ target engagement assay in Jurkat cells)) EUB0001635a RPS6KA3; assay type: cell-based; details: Selectivity number of off-targets 0.0, Selectivity number of targets 233.0, Source Knowledge https://www.sciencedirect.com/science/article/pii/S2451945619300674?via%3Dihub, at 1 µM
[4] = target: T1, cGMP-dependent protein kinase 2 (Homo sapiens) (UniProt Q13237); test: Selectivity interaction (SelectScreen profiling (Invitrogen)) EUB0000607a PRKG2; details: at 2 µM
T1 sequence (whole entry): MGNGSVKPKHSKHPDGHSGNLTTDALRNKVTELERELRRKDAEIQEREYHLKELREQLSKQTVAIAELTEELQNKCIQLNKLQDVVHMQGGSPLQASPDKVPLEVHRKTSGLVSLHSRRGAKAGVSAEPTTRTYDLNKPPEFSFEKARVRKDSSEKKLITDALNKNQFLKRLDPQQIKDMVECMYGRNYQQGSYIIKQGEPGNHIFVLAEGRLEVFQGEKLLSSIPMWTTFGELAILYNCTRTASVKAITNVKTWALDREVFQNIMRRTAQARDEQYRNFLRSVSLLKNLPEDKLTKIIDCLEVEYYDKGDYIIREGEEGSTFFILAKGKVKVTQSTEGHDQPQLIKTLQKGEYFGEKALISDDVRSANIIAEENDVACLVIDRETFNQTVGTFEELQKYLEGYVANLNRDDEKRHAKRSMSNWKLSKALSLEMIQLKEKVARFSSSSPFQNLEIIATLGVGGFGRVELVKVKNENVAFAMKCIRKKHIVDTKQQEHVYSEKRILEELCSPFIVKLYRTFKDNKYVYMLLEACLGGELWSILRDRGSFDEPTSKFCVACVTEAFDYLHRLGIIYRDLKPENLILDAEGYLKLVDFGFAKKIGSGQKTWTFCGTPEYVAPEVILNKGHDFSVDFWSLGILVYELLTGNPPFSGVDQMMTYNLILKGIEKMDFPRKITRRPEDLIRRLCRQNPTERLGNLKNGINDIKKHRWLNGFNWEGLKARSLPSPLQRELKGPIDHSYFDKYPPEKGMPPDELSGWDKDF

[5] = target: T2, Ephrin type-B receptor 6 (Homo sapiens) (UniProt O15197); test: Selectivity interaction (Ambit KINOMEscan and KiNATiv profiling in Jurkat cells) EUB0000090b EPHB6; assay type: cell-based; details: at 1 µM
T2 sequence (whole entry): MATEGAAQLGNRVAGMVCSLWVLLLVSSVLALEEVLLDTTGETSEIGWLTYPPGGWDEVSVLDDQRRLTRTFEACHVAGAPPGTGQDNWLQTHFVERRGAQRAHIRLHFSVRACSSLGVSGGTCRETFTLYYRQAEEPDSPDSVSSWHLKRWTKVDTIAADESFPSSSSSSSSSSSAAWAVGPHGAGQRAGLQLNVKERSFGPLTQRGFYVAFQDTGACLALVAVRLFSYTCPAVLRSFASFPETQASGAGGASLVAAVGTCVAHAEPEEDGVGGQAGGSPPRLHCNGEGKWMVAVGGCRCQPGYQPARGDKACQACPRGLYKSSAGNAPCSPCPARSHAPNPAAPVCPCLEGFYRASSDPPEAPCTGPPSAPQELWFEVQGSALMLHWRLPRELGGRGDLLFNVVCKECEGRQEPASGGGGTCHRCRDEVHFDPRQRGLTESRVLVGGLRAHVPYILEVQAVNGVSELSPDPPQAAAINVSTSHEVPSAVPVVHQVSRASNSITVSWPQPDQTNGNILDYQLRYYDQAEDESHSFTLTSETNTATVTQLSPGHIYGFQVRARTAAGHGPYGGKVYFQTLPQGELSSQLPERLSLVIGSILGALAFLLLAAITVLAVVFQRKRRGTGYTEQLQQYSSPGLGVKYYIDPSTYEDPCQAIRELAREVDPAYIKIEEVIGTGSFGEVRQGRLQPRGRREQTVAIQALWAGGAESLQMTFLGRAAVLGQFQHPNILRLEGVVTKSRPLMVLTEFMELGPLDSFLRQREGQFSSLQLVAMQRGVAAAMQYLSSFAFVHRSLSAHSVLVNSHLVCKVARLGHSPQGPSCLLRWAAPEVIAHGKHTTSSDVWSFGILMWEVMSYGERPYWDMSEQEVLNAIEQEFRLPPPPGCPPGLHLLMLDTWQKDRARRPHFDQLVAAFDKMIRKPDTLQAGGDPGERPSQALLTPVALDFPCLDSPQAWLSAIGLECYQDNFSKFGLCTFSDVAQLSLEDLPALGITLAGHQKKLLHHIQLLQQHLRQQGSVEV

Chain of Insulin receptor-related protein (Homo sapiens) (P14616 27-742 limits assumed): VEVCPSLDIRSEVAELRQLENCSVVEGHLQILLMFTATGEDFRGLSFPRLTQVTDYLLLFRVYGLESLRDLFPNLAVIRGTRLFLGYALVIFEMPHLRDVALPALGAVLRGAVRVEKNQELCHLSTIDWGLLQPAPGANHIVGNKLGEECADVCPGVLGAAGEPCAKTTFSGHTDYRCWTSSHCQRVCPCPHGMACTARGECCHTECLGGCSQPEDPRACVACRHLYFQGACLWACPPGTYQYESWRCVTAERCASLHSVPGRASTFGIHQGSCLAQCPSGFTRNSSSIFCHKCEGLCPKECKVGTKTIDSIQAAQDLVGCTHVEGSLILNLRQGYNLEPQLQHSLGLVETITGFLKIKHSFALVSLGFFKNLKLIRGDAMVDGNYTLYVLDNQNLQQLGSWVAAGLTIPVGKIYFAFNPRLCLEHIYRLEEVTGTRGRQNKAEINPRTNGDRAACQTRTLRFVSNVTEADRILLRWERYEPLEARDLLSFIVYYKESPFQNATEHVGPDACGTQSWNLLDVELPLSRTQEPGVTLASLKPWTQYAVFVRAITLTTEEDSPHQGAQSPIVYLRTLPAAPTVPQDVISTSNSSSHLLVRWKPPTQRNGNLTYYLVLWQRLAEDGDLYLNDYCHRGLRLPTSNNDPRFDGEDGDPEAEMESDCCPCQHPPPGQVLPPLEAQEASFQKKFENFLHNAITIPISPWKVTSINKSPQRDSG
Chain of Insulin receptor-related protein (Homo sapiens) (P14616 747-1297 limits assumed): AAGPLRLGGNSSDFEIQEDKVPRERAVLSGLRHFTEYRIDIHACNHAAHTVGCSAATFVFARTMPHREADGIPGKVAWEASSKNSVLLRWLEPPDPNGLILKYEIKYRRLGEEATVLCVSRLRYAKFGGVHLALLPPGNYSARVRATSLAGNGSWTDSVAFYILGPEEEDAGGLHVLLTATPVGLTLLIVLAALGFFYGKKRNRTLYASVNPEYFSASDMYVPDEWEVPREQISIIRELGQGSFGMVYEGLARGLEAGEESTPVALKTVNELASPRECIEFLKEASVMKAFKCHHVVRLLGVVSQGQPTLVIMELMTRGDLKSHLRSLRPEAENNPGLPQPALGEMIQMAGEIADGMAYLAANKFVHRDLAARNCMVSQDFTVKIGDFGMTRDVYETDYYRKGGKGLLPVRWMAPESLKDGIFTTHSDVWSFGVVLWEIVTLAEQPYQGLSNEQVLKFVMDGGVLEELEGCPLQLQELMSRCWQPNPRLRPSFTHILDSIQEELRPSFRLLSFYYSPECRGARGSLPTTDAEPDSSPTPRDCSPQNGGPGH
Chain of Serine/threonine-protein kinase PLK3 (Q9H4B4 whole entry, looked up): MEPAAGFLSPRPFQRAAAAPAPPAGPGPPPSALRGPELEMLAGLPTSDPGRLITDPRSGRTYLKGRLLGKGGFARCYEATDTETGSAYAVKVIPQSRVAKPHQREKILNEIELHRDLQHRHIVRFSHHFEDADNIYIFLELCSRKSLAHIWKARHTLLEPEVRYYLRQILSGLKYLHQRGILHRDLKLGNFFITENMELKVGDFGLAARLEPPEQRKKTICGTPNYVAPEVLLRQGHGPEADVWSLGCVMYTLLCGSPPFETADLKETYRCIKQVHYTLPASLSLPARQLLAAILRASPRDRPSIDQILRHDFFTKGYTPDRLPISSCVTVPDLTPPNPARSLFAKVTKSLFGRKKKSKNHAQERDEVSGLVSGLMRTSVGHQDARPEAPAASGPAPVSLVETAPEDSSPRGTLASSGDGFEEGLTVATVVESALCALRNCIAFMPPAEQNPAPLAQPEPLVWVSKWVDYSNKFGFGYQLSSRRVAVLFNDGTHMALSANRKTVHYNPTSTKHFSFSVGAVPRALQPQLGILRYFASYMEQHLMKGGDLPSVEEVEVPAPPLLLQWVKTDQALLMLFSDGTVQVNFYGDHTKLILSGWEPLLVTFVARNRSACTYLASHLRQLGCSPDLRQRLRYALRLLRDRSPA
Chain of Ribosomal protein S6 kinase alpha-3 (P51812 whole entry): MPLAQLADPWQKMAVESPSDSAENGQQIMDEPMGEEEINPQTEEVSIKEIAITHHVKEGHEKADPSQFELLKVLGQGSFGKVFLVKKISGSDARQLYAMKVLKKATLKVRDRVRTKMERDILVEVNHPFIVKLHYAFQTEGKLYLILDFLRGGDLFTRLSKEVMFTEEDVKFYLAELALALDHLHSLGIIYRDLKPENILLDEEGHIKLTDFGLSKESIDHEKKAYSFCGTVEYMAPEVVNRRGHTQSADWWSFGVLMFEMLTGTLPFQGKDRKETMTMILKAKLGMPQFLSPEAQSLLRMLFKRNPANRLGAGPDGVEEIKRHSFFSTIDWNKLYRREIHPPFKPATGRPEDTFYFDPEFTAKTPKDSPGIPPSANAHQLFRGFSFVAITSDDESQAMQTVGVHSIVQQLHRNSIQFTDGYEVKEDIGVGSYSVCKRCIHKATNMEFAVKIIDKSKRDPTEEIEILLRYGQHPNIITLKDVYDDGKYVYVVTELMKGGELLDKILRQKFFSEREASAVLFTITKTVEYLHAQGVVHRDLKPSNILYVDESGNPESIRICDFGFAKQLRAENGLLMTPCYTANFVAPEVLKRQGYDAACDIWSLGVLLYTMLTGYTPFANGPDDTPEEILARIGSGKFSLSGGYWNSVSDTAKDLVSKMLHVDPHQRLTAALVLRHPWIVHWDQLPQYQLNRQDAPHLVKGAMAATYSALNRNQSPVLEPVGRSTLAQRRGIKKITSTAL

## CCN(CC)CCCCNc1ncc2cc(-c3cc(OC)cc(OC)c3)c(NC(=O)NC(C)(C)C)nc2n1
[1]
  % of control: 100%

## Nc1cnc(N2CCc3cc(S(=O)(=O)Nc4c(F)cc(Cl)cc4F)cc(N4CCCC4=O)c32)nc1 [TP-020n]
[2]
  % of control: 100%

## C=CC(=O)Nc1ccc(C(=O)Nc2[nH]nc3c2CN(C(=O)N[C@H](CN(C)C)c2ccccc2)C3(C)C)cc1
[3]
  % of engagement: 12%

## CNC(=O)Nc1ccc(-c2nc(N3CC4CCC(C3)O4)c3cnn(C4CCC5(CC4)OCCO5)c3n2)cc1
[4]
  % of inhibition: 9%

## CN(C)C/C=C/C(=O)Nc1ccc(C(=O)N2CCCC(Nc3ncc(Cl)c(-c4c[nH]c5ccccc45)n3)C2)cc1 (stereo not given)
[5]
  % of control: 76%
